Measurements as given in patent US20070003483A1, “Method of evaluating organ function” (Oxygenix Co., Ltd., priority 2003, published 2007).

Assays:
Mrp2 [1] = test: Immunohistochemical analysis of subcellular Mrp2 distribution in 8-hr cold ischemia-reperfused grafts; parameters: species or system rat; details: 8-hr cold ischemia and 60-min reperfusion
Text: To evaluate Mrp2 in hepatocytes of the grafts, the liver samples were fixed, sliced, and stained with a monoclonal antibody M2III-6, according to previous study (32). The antigen on the sections was visualized by phycoerythrin-conjugated anti-mouse IgG and observed through laser confocal microfluorography at 488 nm as described elsewhere (20, 30). In order to examine BC localization and hepatocellular internalization of Mrp2, the sections were double immunostained with a monoclonal antibody against ZO-1, another marker expressed in hepatocellular junction (33). To determine changes in the protein distribution in a semi-quantitative manner, single-stained microfluorographs of Mrp2 were converted as monochrome 8-bit images (14). The gray levels (1-256) were measured at both cytoplasmic and canalicular domains in a single hepatocytes. At least 5 different sites for each domain were chosen in a single cell to calculate the relative values of cytoplasmic intensities versus the corresponding canalicular intensities. Such a measurement was carried out in 40-60 hepatocytes in 4 different grafts to construct histograms of the percentage cytoplasmic intensities of Mrp2-associated immunoreactivities, being defined as % I-Mrp2(cyt/bc). The elevation of this index represented an increase in the Mtp2 internalization. […]

Mrp2 [2] = target: T1, Mrp2 (Rattus norvegicus, UniProt Q63120); test: Biliary excretion rates of carboxyfluorescein (T1/2 of dye exclusion) in whole perfused liver grafts; details: normoperfused grafts in the presence of 1.5 mM probenecid
T1 construct: Livers of these rats were perfused ex vivo with the oxygenated Krebs-Henseleit buffer; from tissue; host or cells: whole rat liver grafts (Wistar), perfused ex vivo
T1 sequence (Q63120 whole entry, the tested form may be a part): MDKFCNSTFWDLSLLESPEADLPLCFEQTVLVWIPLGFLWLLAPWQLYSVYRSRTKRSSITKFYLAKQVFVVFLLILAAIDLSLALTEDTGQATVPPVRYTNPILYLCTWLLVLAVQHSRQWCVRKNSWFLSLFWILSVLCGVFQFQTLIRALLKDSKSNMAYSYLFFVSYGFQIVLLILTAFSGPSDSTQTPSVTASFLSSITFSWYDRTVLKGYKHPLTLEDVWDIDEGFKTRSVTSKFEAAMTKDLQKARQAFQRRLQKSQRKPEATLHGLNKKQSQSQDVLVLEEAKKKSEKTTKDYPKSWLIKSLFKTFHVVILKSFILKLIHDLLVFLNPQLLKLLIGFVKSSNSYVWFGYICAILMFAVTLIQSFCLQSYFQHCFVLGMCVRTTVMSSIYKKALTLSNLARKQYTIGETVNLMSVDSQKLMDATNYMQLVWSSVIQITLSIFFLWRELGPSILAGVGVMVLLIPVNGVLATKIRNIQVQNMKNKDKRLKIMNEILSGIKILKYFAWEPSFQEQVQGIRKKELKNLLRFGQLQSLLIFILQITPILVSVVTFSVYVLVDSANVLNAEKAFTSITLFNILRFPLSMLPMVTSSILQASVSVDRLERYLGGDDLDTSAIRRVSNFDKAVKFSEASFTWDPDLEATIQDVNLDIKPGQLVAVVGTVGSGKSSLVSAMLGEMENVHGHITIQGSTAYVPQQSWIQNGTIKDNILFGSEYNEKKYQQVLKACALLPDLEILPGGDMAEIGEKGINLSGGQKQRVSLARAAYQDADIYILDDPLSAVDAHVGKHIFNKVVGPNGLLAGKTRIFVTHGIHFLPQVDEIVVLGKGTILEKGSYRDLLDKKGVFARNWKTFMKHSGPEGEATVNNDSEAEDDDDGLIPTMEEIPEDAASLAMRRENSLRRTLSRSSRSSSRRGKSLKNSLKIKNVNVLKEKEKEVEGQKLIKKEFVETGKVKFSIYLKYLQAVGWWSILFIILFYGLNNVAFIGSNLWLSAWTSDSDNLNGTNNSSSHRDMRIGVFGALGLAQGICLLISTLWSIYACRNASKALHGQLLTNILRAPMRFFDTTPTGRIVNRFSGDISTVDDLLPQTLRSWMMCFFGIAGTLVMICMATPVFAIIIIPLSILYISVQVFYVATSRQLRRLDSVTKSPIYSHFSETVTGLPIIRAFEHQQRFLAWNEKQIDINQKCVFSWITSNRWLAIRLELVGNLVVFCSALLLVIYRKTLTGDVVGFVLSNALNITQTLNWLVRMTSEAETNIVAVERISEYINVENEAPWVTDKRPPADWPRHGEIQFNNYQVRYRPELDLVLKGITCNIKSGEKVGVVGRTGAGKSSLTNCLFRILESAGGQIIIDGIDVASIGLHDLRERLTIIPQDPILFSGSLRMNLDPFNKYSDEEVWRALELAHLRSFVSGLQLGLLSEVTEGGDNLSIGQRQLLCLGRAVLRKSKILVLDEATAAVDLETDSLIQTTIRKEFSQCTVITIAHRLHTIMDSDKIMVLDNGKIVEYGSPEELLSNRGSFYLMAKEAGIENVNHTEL
Procedure: (§1) Male Wistar rats (220-260 g, CLEA Japan, Tokyo) and Eisai hyperbilirubinemia rats (EHBR) (220-260 g, Sankyo Inc., Tokyo) that had been allowed free access to laboratory chow and tap water were fasted 24 hrs before experiments. Livers of these rats were perfused ex vivo with the oxygenated Krebs-Henseleit buffer as the base-line perfusate (17, 18), and stored in the University of Wisconsin solution at 4° C. for desired lengths of time (14). When necessary, rats were pretreated with an intravenous injection of liposome-encapsulated dichloromethylene diphosphonate (LDD) at 24 hrs prior to preparation of the ex-vivo liver perfusion for the cold storage according to our previous studies (14, 19). […]
Carboxyfluorescein (CF) is an organic anion which excreted from various cells through Mrp2 (26, 27). […] Bile samples collected from these preparations were deep-frozen until the fluorescence measurements were carried out using a 96-well multi-channel fluorescence spectrophotometer. The measurements were performed under epi-illumination at 440 nm, the isosbestic wavelength of the dye which yields fluorescence at 510 nm without interference with pH values of the samples (26). […] With this assumption, biliary CF lifetimes were determined as the T1/2 of the exponential decay.

Mrp2 [3] = target: T1, Mrp2; test: In situ visualization of hepatocellular CF exclusion by intravital laser confocal microfluorography in perfused liver grafts; details: grafts perfused with 1.5 mM probenecid
Procedure: as §1
Liver grafts loaded with CF using the aforementioned protocols were observed through intravital laser confocal microfluorography as described previously (14, 20, 30). […] To calibrate the fluorescence intensities, known concentrations of CF were prepared in vitro and the images were captured under the identical optical parameters of the camera. Gray levels in hepatocytes were measured by variable square window (2×2 μm^2) using digital image processor (18, 31). At least 10 different hepatocytes in the microscopic fields of interests were analyzed in a single experiment.

| Structure (SMILES) | Mrp2 internalization (reduced BC localization, elevated cytoplasmic intensity) (Mrp2 [1]) | transient increase of CF concentrations in bile (Mrp2 [2]) | decay of hepatocellular CF fluorescence (Mrp2 transport) (Mrp2 [3]) |
| --- | --- | --- | --- |
| O=C(O)/C=C/c1ccc(Cn2ccnc2)cc1 [OKY-046] | attenuated |  |  |
| CCCN(CCC)S(=O)(=O)c1ccc(C(=O)O)cc1 [probenecid] |  | not observed | substantially slowed |
